Data: BindingDB's records for doi:10.1021/jm960626t (Dupont Pharmaceuticals, 1997)
Structures can show the parent of a compound that is named as a salt.

Molecular target: Integrin alpha-IIb/beta-3 (Homo sapiens, UniProt P08514+P05106)
Assay: Inhibition of human platelet aggregation induced by ADP

Sequence of Integrin alpha-IIb/beta-3 (P05106 27-788 limits assumed): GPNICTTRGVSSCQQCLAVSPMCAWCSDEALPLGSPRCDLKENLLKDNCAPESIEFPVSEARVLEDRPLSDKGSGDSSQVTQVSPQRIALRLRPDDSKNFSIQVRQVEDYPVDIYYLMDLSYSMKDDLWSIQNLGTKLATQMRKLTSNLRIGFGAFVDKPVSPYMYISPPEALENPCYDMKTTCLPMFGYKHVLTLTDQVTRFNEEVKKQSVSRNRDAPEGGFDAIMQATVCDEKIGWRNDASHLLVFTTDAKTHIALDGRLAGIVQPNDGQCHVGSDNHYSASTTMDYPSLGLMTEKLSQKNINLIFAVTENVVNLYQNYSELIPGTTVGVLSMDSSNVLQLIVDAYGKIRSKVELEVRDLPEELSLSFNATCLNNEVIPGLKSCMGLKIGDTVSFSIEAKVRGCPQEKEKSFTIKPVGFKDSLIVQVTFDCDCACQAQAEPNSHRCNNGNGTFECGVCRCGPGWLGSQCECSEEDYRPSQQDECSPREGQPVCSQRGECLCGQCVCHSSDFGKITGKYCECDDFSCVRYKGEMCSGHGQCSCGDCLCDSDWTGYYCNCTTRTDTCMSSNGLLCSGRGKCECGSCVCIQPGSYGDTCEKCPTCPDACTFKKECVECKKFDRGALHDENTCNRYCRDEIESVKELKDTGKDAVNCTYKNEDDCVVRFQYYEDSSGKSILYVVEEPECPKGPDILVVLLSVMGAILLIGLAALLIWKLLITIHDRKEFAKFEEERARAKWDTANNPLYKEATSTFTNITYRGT
Sequence of Integrin alpha-IIb/beta-3 (P08514 32-887 limits assumed): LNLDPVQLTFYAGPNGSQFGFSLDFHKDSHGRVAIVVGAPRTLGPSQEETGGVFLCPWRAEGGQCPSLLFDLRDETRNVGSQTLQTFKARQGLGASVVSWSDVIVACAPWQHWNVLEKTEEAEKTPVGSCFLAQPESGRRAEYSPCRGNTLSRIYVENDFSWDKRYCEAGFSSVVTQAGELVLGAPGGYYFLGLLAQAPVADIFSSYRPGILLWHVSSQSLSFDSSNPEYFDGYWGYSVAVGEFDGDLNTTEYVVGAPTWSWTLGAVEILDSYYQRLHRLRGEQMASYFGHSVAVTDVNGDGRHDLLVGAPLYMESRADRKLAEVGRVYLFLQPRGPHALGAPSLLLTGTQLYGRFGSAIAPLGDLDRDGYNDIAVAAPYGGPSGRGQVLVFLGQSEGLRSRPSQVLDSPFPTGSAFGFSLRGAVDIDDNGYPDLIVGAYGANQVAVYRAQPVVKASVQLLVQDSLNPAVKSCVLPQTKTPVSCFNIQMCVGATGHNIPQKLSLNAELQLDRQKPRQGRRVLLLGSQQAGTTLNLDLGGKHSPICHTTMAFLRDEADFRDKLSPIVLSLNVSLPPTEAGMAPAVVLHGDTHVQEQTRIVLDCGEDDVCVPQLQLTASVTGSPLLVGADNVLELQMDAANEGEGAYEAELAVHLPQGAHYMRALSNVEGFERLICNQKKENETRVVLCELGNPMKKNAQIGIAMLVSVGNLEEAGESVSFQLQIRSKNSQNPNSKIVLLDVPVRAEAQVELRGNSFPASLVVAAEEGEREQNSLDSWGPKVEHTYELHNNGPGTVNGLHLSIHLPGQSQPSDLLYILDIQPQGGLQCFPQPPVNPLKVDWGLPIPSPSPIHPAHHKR
Sequence of Integrin alpha-IIb/beta-3 (P08514 891-1039 limits assumed): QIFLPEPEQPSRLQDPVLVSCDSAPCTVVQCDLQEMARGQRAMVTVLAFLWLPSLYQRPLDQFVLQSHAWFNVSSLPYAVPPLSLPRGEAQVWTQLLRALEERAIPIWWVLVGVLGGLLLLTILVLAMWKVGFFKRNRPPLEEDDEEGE

SMILES | IC50
O=C(O)CCC1CC(c2ccc(OCC3CCNCC3)cc2)=NO1 (configuration not stated) [3-{3-[4-(Piperidin-4-ylmethoxy)-phenyl]-4,5-dihydro-isoxazol-5-yl}-propionic acid] | 18 µM
O=C(O)CCNC(=O)CC1CC(CCC2CCNCC2)=NO1 (configuration not stated) [3-{2-[3-(2-Piperidin-4-yl-ethyl)-4,5-dihydro-isoxazol-5-yl]-acetylamino}-propionic acid] | 0.63 µM
O=C(O)CCNC(=O)CC1CC(CC2CCNCC2)=NO1 (configuration not stated) [3-[2-(3-Piperidin-4-ylmethyl-4,5-dihydro-isoxazol-5-yl)-acetylamino]-propionic acid] | > 100 µM
N=C(N)c1ccc(C2=NO[C@@H](CC(=O)NCCC(=O)O)C2)cc1 | 0.86 µM
O=C(O)CC1CC(c2ccc(OCCC3CCNCC3)cc2)=NO1 (configuration not stated) [{3-[4-(2-Piperidin-4-yl-ethoxy)-phenyl]-4,5-dihydro-isoxazol-5-yl}-acetic acid] | 8.3 µM
O=C(NC(C(=O)O)C1CC(c2ccc(OCCC3CCNCC3)cc2)=NO1)OCc1ccccc1 (configuration not stated) [Benzyloxycarbonylamino-{3-[4-(2-piperidin-4-yl-ethoxy)-phenyl]-4,5-dihydro-isoxazol-5-yl}-acetic acid] | 23 µM
N=C(N)c1ccc(C2=NO[C@H](CC(=O)NCCC(=O)O)C2)cc1 [3-{2-[(S)-3-(4-Carbamimidoyl-phenyl)-4,5-dihydro-isoxazol-5-yl]-acetylamino}-propionic acid; TFA] | 0.06 µM
